Holding throughout (format): binding
Assay [1] deals with T1, panel of 442 kinases (Homo sapiens, UniProt O43318).
T1 construct: purchased KINOMEscan
T1 sequence (O43318 1-606): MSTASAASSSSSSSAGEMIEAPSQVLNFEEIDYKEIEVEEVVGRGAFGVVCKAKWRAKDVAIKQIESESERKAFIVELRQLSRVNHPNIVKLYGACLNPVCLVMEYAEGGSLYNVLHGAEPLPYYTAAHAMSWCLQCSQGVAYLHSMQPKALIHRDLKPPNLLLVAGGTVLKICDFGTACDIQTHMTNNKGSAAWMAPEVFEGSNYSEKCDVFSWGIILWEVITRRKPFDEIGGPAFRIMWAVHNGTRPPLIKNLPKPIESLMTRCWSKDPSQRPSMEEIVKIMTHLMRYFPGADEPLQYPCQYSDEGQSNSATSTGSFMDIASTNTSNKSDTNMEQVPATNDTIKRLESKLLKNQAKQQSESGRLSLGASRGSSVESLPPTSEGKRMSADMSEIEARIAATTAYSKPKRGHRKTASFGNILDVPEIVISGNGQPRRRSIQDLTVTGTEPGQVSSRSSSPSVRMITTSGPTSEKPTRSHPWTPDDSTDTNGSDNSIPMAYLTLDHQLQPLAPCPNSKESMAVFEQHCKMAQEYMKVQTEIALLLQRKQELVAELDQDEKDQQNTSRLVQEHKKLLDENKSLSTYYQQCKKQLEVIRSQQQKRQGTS
The note with it: kinase TAK1; compound concentration 10 µM. From the text: (§1) We assessed the selectivity of members of this scaffold using the KINOMEscan methodology across a near comprehensive panel of 442 kinases [[18,27]].

In assay [2] the target is T2, panel of 442 kinases (Homo sapiens, UniProt P08581).
T2 construct: purchased KINOMEscan
Particulars: Compound Concentration 10 µM.
Description: as §1

The target in assay [3] is T3, panel of 442 kinases (Homo sapiens, UniProt P48730).
T3 construct: purchased KINOMEscan
The note with it: Compound Concentration 10 µM.
Description: as §1

T2 sequence (P08581 25-1390): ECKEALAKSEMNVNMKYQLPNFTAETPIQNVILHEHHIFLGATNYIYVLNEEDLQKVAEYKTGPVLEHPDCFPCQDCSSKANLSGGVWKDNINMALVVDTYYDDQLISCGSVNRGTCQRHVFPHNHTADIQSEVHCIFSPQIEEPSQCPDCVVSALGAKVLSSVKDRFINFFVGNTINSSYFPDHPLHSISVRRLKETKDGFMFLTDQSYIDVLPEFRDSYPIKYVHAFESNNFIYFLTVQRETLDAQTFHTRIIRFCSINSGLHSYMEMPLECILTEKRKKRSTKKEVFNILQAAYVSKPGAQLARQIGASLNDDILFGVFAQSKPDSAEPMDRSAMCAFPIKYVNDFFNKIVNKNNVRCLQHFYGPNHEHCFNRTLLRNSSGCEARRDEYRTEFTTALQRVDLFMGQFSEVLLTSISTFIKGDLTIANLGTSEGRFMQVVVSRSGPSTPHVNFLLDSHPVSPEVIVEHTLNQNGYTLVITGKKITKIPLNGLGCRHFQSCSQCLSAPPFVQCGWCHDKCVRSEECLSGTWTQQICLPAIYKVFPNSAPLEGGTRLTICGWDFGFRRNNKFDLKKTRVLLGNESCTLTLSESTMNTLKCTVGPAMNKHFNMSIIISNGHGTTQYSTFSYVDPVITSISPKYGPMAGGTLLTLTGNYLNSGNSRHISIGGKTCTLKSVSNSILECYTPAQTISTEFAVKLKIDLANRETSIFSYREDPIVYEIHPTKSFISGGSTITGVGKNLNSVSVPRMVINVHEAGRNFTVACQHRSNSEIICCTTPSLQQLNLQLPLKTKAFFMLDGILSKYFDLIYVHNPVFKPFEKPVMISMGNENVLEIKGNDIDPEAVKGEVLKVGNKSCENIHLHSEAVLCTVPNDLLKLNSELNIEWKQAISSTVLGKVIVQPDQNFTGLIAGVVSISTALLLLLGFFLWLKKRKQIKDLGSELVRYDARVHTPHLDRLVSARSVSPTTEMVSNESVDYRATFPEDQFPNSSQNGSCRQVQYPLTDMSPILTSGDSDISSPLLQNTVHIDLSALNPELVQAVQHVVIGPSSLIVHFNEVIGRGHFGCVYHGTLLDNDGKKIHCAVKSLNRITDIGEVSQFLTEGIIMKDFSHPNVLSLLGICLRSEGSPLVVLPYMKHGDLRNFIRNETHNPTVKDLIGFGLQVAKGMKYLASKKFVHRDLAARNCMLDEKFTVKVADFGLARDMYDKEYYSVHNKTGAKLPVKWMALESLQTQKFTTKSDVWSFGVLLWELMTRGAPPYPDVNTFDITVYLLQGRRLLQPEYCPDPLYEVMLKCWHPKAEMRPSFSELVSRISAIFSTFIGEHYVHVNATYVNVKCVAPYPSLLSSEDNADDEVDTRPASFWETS
T3 sequence (P48730 whole entry): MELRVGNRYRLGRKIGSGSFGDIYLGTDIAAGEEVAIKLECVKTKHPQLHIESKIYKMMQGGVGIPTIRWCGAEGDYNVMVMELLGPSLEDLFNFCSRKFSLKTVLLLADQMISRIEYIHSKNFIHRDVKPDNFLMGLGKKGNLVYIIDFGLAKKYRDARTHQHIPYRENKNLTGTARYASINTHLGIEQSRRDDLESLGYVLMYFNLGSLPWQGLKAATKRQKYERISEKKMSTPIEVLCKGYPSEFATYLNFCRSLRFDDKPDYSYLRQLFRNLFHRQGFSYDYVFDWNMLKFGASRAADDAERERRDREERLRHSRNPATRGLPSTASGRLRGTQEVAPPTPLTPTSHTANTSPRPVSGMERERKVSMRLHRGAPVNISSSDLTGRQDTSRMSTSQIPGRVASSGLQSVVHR

As to `COc1cc(C(=O)N2CCC(N3CCN(C)CC3)CC2)ccc1Nc1ncc2c(n1)N(C)c1ccccc1C(=O)N2C` [15 (LRRK2-IN-1)], the “% Ctrl, TAK1” value at panel of 442 kinases [1] came out at 98 % Ctrl. Further, the “KINOMEscan: MET” value at panel of 442 kinases [2] came to 100. Further, on panel of 442 kinases [3], the “KINOMEscan: CSNK1D” value is recorded as 81.
Turning to `COc1cc(C(=O)N2CCC(N3CCN(C)CC3)CC2)ccc1Nc1ncc2c(n1)N1CCc3cccc(c31)C(=O)N2C` [Compound 24], the “% Ctrl, TAK1” value at panel of 442 kinases [1] worked out at 100 % Ctrl. For the same molecule, the “KINOMEscan: CSNK1D” value at panel of 442 kinases [3] was 60.
Take `COc1cc(C(=O)N2CCC(N3CCN(C)CC3)CC2)ccc1Nc1ncc2c(n1)N(C1CCCC1)c1ccccc1C(=O)N2C` [Compound 25, 11-cyclopentyl-2-((2-methoxy-4-(4-(4-methylpiperazin-1-yl)piperidine-1-carbonyl)phenyl)amino)-5-methyl-5H-benzo[e]pyrimido[5,4-b][1,4]diazepin-6(11H)-one]: the “% Ctrl, TAK1” value on panel of 442 kinases [1] was found to be 100 % Ctrl. Further, the “KINOMEscan: MET” value on panel of 442 kinases [2] is 97. For the same molecule, the “KINOMEscan: CSNK1D” value at panel of 442 kinases [3] came to 98.
The corresponding values for `CCOc1cc(C(=O)N2CCC(N3CCN(C)CC3)CC2)ccc1Nc1ncc2c(n1)N(C1CCCC1)c1ccccc1C(=O)N2C` [Compound 26] are 100 % Ctrl, 100 and 100.

Values taken from PMC3914206.
